Values belong to the molecule of their own block, whether it stands above or below them. Square brackets hold non-standard residues; d marks the D form. Side chains are listed from the residue outwards. Ends that are not written are not given here. Peptide text beside a SMILES is read from it. sY = N[C@@H](Cc1ccc(OS(=O)(=O)O)cc1)C(=O)O; Ahx = NCCCCCC(=O)O
Assays:
[1] = biological target: T1, PSK receptor (120-kD receptor kinase) (Daucus carota, UniProt Q8LPB4); test: specific binding of PSK to membrane fractions, Scatchard plot; design: species or system carrot
T1 construct: The inserted portion (i.e., full length cDNA) in the positive phage was subcloned to pBS vector; expressed in transfected cells; host or cells: transgenic carrot cells (sense transformant, pBI121, CaMV 35S promoter); membrane fraction
T1 sequence (Q8LPB4 25-1021): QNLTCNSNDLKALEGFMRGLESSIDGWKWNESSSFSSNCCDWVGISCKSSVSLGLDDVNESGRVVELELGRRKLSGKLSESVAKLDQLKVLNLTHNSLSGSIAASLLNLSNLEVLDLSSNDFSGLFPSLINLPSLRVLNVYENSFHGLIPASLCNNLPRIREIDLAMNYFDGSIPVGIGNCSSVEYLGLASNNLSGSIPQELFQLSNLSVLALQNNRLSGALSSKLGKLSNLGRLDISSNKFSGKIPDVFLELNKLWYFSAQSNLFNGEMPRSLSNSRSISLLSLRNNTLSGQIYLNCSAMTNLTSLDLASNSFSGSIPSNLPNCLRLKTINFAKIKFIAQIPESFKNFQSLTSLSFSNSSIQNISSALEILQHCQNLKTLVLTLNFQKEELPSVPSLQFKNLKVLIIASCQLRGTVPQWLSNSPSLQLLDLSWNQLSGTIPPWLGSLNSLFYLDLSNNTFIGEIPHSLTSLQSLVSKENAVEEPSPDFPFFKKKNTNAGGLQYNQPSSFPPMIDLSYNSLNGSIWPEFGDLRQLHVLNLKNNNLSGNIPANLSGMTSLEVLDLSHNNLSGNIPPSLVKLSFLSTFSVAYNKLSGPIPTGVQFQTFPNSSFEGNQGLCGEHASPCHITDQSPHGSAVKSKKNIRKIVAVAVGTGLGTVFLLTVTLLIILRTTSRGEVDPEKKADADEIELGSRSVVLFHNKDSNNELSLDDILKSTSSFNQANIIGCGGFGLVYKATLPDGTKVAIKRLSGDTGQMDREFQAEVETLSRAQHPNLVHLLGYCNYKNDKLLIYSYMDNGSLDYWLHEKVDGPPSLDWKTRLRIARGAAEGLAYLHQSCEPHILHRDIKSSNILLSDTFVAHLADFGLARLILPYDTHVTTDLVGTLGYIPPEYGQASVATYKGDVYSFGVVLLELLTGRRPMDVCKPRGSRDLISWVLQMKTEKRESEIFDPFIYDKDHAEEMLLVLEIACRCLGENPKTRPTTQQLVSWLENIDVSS

[2] = biological target: T1, PSK receptor (120-kD receptor kinase); test: inhibition of [3H]PSK binding to the membrane fraction of the sense transformant by unlabelled competitors; design: species or system carrot; details: 6.3 nM [3H]PSK, 3.2 μM unlabelled competitor
Description: The specificity of the PSK binding activity was characterized by comparing the relative binding affinity for several PSK analogs. […] The membrane proteins were incubated in binding buffer containing 6.3 nM [^3H]PSK and 3.2 μM of the competitor .

[3] = tested on: transgenic carrot cells overexpressing the receptor protein (sense transformants); test: callus growth of transgenic carrot cells in response to PSK; assay type: cell-based; details: 10 nM PSK, 3 weeks on B5 media with NAA 1.0 mg/liter and 6-BA 0.5 mg/liter
Description: The chimeric genes were composed of the receptor kinase ORF, in the sense or antisense orientation, under the control of the constitutive cauliflower mosaic virus 35S promoter incorporated within the binary vector pBI 121. Transformation of carrot hypocotyl segments and plant regeneration were performed following a protocol described elsewhere (M. Hardegger, A. Sturm, Mol. Breed. 4, 119 (1998)). Carrot cells transformed with the binary vector alone were used as controls. Analysis of variance of the growth data was carried out using the Student's t-test procedure of the Prism software (GraphPad Software).
The cDNA of the aforementioned protein was overexpressed in transgenic carrot cells, in sense orientation, under the control of the cauliflower mosaic virus 35S promoter. […] These phenotypes are consistent with the hypothesis that overexpression and antisense inhibition of this receptor protein alter the responsive property of carrot cells to PSK. FIGS. 6A to 6C show the callus growth of the sense transformants, the control cells, and antisense transformants exposed to 10 nM PSK, respectively. The transformed carrot cells and the control cells were cultured for 3 weeks on B5 media containing naphthaleneacetic acid (NAA, 1.0 mg/liter), 6-benzylamino purine (6-BA, 0.5 mg/liter), and 10 nM PSK. The scale bar in FIG. 6C represents 1 cm.

[4] = biological target: PSK receptor protein (120-kD receptor kinase of carrot) (carrot) (UniProt Q8LPB4); test: [3H]PSK saturation binding to membrane fractions of sense transformants, Scatchard plot
[5] = biological target: PSK receptor protein (120-kD receptor kinase of carrot) (carrot) (UniProt Q8LPB4); test: [3H]PSK saturation binding to membrane fractions of control carrot cells (endogenous receptor), Scatchard plot
[6] = biological target: T2, PSK receptor protein (120-kD receptor kinase of carrot) (carrot, UniProt Q8LPB4 25-1021, N-linked oligosaccharide chains of approximately 10 kD (cleaved by PNGase F)); test: affinity chromatography on [Lys5]PSK-Sepharose, elution with PSK, SDS-PAGE
T2 construct: Assayed in membrane fractions of carrot cells (sense transformants overexpressing the ORF; control cells with the endogenous protein) or solubilized from carrot NC cell microsomal membranes; also called phytosulfokine receptor; 120-kD protein
T2 sequence: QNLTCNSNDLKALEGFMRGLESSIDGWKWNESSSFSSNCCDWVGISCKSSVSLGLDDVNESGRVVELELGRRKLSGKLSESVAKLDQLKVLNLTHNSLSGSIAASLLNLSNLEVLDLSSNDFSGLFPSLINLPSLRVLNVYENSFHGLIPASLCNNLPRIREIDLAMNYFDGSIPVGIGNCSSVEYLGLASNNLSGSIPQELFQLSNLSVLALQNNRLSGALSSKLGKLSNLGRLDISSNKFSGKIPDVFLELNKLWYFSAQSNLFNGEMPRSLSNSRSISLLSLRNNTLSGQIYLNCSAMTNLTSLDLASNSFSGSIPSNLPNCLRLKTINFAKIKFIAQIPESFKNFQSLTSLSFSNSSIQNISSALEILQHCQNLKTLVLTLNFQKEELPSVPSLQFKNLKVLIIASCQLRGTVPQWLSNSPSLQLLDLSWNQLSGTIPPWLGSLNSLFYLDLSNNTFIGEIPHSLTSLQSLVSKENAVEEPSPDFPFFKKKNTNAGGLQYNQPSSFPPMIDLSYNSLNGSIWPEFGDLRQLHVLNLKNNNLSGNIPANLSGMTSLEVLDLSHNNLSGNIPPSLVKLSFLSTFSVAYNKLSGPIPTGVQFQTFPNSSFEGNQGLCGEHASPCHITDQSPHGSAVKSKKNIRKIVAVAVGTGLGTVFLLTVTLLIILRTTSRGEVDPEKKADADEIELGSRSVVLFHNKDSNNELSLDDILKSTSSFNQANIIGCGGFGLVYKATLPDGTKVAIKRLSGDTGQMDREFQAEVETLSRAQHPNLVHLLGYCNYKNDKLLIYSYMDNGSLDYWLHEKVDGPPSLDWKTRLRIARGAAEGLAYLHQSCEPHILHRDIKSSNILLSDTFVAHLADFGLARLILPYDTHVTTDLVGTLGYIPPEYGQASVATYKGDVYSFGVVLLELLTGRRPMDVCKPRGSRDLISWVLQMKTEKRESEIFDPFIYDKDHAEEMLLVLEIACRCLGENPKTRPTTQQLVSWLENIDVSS
Description: Carrot microsomal membranes (1,200 mg protein) were solubilized in 320 ml of buffer containing 20 mM HEPES-KOH (pH 7.5), 50 mM KCl, and 1.0% Triton X-100 (buffer A). Solubilized materials were centrifuged at 100,000 g for 30 min at 4° C., and supernatants were applied to the [Lys⁵]PSK-Sepharose column (5.0 ml) at a flow rate of 0.5 ml/min using the AKTA prime chromatography system (Amersham Pharmacia Biotech). After washing with 50 ml of buffer containing 20 mM HEPES-KOH (pH 7.5), 50 mM KCl, and 0.1% Triton X-100 (buffer B), the column was eluted with 15 ml of 1.0 mg/ml PSK in buffer B. The eluates were added to a 1.0-ml column of Macro-Prep Ceramic Hydroxyapatite Type I (Bio-Rad laboratories) at a flow rate of 0.5 ml/min at 4° C. The column was washed with 20 ml of buffer B and eluted with a 18-ml gradient of KH₂PO₄ (0 to 400 mM) in buffer B. Active fractions (12 ml), as determined by [³H]PSK binding assay, were concentrated by ultrafiltration (Ultrafree-15 with Biomax-10 membranes, Millipore) and analyzed by SDS-PAGE using 7.5% gels (Y. Matsubayashi, Y. Sakagami, Eur. J. Biochem. 262, 666 (1999)).
The PSK-binding proteins were purified with [Lys⁵] PSK-Sepharose column. The purified proteins were further purified by hydroxyapatite column chromatography, concentrated and subjected to SDS-PAGE and Nile red staining.

[7] = membrane fractions of control cells (binary vector alone)
[8] = membrane fractions of sense transformant

Molecule: CC[C@H](C)[C@H](NC(=O)[C@@H](N)Cc1ccc(OS(=O)(=O)O)cc1)C(=O)N[C@@H](Cc1ccc(OS(=O)(=O)O)cc1)C(=O)N[C@H](C(=O)N[C@@H](CCC(N)=O)C(=O)O)[C@@H](C)O [PSK, phytosulfokine] (H-[sY]I[sY]TQ-OH; N-terminus and C-terminus assumed)
- Bmax (maximum number of binding sites) [1, 7]: 34±2 fmol per mg of membrane protein
- Kd [1, 7]: 4.8 ± 1.1 nM
- Bmax (maximum number of binding sites) [1, 8]: 570±18 fmol per mg of membrane protein
- Kd [1, 8]: 4.1 ± 0.5 nM
- inhibition of binding of [3H]PSK to the membrane fraction of the sense transformant [2]: strongly inhibited
- callus growth in response to PSK, compared with control cells [3]: accelerated growth

Molecule: [1-4]PSK: less active analog of PSK (YIYT)
- inhibition of binding of [3H]PSK to the membrane fraction of the sense transformant [2]: less strongly inhibited

- Bmax (fmol per mg of membrane protein) [4]: 570
- Bmax (fmol per mg of membrane protein) [5]: 34
Molecule: phytosulfokine (PSK) (peptide)

- binding result [6]: binds
Molecule: [sY]I[sY]TK([Ahx-Ahx-Ahx-Sepharose]) (also: Lys5 side chain coupled via Ahx spacer to Sepharose) [[Lys5]PSK-Sepharose]

Reference: patent US20040096941A1, “Receptor for plant cell growth factor” (priority 2002, published 2004)
